Each block holds one molecule with its values, some of them ahead of it. Calls of active or inactive are those of the source. The rule behind the calls is not given here.
Assays:
[1] = biological target: T1, Prostaglandin G/H synthase 1 (Ovis aries) (UniProt P05979); assay: Inhibition of ovine COX-1 using arachidonic acid as substrate at 10 uM preincubated with compound for 5 mins followed by substrate addition and measured after 2 mins by fluorescence spectrum analysis; conditions: time 7.0 min
T1 sequence (whole entry): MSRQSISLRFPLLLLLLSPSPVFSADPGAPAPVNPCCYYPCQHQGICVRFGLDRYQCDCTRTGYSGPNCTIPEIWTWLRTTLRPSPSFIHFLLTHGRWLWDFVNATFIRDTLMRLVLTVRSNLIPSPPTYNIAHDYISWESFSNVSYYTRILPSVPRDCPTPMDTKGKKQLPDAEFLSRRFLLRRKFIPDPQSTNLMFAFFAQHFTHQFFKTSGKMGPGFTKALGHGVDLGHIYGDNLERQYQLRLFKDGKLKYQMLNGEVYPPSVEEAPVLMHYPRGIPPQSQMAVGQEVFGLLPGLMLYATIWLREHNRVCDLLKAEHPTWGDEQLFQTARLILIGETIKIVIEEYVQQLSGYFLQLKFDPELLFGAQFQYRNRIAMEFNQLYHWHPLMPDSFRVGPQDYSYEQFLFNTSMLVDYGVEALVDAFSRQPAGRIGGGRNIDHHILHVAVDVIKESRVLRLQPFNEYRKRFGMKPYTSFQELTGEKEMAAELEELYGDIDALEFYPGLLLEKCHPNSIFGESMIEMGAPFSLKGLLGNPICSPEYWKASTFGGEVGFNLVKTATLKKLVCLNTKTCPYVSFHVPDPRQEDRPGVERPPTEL

[2] = biological target: T2, Prostaglandin G/H synthase 2 (Homo sapiens) (UniProt P35354); assay: Inhibition of recombinant human COX-2 using arachidonic acid as substrate at 10 uM preincubated with compound for 5 mins followed by substrate addition and measured after 2 mins by fluorescence spectrum analysis; conditions: time 7.0 min
T2 sequence (whole entry): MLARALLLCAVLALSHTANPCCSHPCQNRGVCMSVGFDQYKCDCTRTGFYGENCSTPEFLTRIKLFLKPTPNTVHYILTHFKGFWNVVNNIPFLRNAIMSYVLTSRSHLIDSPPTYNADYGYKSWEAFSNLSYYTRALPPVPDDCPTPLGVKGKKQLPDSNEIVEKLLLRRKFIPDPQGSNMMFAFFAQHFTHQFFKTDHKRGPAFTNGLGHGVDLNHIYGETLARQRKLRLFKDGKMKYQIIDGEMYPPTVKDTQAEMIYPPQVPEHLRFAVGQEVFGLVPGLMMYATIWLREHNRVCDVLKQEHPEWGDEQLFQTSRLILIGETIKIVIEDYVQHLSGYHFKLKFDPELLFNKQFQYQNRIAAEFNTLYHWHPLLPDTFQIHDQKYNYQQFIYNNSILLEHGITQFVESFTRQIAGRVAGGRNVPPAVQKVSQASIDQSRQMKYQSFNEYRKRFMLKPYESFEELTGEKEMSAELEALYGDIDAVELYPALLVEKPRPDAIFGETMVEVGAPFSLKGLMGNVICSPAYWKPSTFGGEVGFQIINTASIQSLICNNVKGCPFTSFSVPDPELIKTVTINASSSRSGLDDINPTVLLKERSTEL

[3] = tested on: RAW264.7; assay: Effect of NF-kappaB protein level in LPS-stimulated mouse RAW264.7 cells at 2 to 30 uM preincubated with compound for 1 hrs followed by LPS-stimulation and measured after 30 mins by Western blot analysis; format: functional, cell-based; conditions: dose 2-30 µM, time 1.5 hrs
[4] = tested on: RAW264.7; assay: Cytotoxicity against mouse RAW264.7 cells assessed as reduction in cell survival at 10 uM incubated for 24 hrs by MTT assay; format: toxicity, cell-based; conditions: raw264.7, 24 h
[5] = tested on: RAW264.7; assay: Anti-inflammatory activity in mouse RAW264.7 cells assessed as decrease in LPS-induced NO production incubated for 24 hrs by Griess reagent based assay; format: functional, cell-based; conditions: dose 2-30 µM
[6] = tested on: L02; assay: Cytotoxicity against human L02 cells assessed as reduction in cell survival upto 50 uM incubated for 48 to 72 hrs by MTT assay; format: toxicity, cell-based; conditions: l02, 50 µM, time 48-72 hrs
[7] = biological target: T3, NF-kappa-B inhibitor alpha (Mus musculus) (UniProt Q9Z1E3); assay: Inhibition of IkappaBalpha phosphorylation in LPS-stimulated mouse RAW264.7 cells preincubated with compound for 1 hrs followed by LPS-stimulation and measured after 30 mins by Western blot analysis; format: cell-based; conditions: dose 2-30 µM, time 1.5 hrs
T3 sequence (whole entry): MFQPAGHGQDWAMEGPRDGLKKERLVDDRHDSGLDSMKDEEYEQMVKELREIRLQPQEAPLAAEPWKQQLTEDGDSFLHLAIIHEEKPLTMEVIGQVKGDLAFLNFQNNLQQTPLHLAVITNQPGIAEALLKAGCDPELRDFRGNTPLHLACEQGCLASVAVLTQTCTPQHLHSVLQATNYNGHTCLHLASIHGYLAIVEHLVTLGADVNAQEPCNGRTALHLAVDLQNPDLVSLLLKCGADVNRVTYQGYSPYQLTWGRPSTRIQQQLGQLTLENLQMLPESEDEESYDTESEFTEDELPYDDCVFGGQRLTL

[8] = tested on: L929; assay: Cytotoxicity against mouse L929 cells assessed as reduction in cell survival upto 50 uM incubated for 48 to 72 hrs by MTT assay; format: toxicity, cell-based; conditions: l929, 50 µM, time 48-72 hrs
[9] = tested on: RAW264.7; assay: Anti-inflammatory activity in mouse RAW264.7 cells assessed as decrease in LPS-induced COX-2 protein expression incubated for 24 hrs by Western blot analysis; format: functional, cell-based; conditions: dose 2-10 µM
[10] = tested on: RAW264.7; assay: Cytotoxicity against mouse RAW264.7 cells assessed as reduction in cell survival upto 50 uM incubated for 48 to 72 hrs by MTT assay; format: toxicity, cell-based; conditions: raw264.7, 50 µM, time 48-72 hrs
[11] = biological target: T4, Prostaglandin G/H synthase 2 (Homo sapiens, UniProt P35354); assay: Inhibition of recombinant human COX-2 using arachidonic acid as substrate preincubated with compound for 5 mins followed by substrate addition and measured after 2 mins by fluorescence spectrum analysis
T4 sequence (P35354 whole entry): T2 sequence (whole entry)

[12] = biological target: T5, Prostaglandin G/H synthase 2 (Mus musculus) (UniProt Q05769); assay: Inhibition of COX-2 in mouse RAW264.7 cells assessed as suppression of LPS-induced PGE2 production at 2 to 30 uM incubated for 24 hrs by ELISA analysis; format: cell-based; conditions: dose 2-30 µM
T5 sequence (whole entry): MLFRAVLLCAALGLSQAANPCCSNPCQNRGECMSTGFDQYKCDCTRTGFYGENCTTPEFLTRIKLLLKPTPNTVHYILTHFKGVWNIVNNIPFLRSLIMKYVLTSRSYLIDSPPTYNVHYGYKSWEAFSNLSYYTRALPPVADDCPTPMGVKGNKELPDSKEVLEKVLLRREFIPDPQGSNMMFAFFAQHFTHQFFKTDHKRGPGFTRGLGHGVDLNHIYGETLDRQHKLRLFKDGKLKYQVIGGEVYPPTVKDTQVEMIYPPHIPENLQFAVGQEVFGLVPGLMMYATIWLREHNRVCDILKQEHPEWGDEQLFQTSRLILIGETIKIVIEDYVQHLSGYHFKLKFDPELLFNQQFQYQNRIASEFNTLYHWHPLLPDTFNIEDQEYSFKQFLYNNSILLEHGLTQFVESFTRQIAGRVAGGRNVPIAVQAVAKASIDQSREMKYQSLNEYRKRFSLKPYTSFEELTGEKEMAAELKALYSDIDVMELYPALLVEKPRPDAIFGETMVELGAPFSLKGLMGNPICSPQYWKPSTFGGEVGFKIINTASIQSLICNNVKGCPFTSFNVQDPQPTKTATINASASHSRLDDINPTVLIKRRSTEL

[13] = tested on: L02; assay: Cytotoxicity against human L02 cells assessed as reduction in cell survival at 10 uM incubated for 24 hrs by MTT assay; format: toxicity, cell-based; conditions: l02, 24 h
[14] = tested on: RAW264.7; assay: Anti-inflammatory activity in mouse RAW264.7 cells assessed as decrease in LPS-induced TNF-alpha production incubated for 24 hrs by ELISA analysis; format: functional, cell-based; conditions: dose 2-30 µM
[15] = tested on: RAW264.7; assay: Inhibition of IKK phosphorylation in LPS-stimulated mouse RAW264.7 cells preincubated with compound for 1 hrs followed by LPS-stimulation and measured after 30 mins by Western blot analysis; format: cell-based; conditions: dose 2-30 µM, time 1.5 hrs
[16] = tested on: RAW264.7; assay: Anti-inflammatory activity in mouse RAW264.7 cells assessed as decrease in LPS-induced IL-1beta production incubated for 24 hrs by ELISA analysis; format: functional, cell-based; conditions: dose 2-30 µM
[17] = biological target: T6, Prostaglandin G/H synthase 2 (Ovis aries, UniProt P79208); assay: Inhibition of ovine COX-2 assessed as reduction in PGF2alpha production by enzyme immunoassay
T6 sequence (P79208 whole entry): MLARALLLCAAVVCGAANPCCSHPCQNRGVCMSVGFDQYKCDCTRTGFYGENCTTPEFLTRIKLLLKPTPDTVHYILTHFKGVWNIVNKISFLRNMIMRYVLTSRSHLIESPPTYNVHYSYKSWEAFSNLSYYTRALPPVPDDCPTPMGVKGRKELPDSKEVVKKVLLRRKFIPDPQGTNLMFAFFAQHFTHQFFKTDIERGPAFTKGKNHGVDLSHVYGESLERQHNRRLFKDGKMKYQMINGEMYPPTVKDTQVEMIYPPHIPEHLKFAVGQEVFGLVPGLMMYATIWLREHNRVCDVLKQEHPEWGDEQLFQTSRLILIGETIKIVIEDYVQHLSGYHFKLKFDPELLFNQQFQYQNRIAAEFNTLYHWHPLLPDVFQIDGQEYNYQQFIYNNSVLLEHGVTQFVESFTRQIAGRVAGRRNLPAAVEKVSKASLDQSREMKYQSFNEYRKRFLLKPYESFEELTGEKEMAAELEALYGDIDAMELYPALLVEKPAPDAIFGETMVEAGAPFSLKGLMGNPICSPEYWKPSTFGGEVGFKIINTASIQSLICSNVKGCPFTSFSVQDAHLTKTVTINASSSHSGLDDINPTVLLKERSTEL

[18] = biological target: T7, Prostaglandin G/H synthase 1 (Ovis aries, UniProt P05979); assay: Inhibition of ovine COX-1 using arachidonic acid as substrate preincubated with compound for 5 mins followed by substrate addition and measured after 2 mins by fluorescence spectrum analysis
T7 sequence (P05979 whole entry): T1 sequence (whole entry)

[19] = tested on: RAW264.7; assay: Anti-inflammatory activity in mouse RAW264.7 cells assessed as decrease in LPS-induced iNOS protein expression incubated for 24 hrs by Western blot analysis; format: functional, cell-based; conditions: dose 2-10 µM
[20] = tested on: RAW264.7; assay: Anti-inflammatory activity in mouse RAW264.7 cells assessed as decrease in LPS-induced IL-6 production incubated for 24 hrs by ELISA analysis; format: functional, cell-based; conditions: dose 2-30 µM
[21] = tested on: L929; assay: Cytotoxicity against mouse L929 cells assessed as reduction in cell survival at 10 uM incubated for 24 hrs by MTT assay; format: toxicity, cell-based; conditions: l929, 24 h
[22] = tested on: RAW264.7; assay: Inhibition of NF-kappaB phosphorylation in LPS-stimulated mouse RAW264.7 cells at 2 to 30 uM preincubated with compound for 1 hrs followed by LPS-stimulation and measured after 30 mins by Western blot analysis; format: cell-based; conditions: dose 2-30 µM, time 1.5 hrs

inhibition [1]: Active | inhibition [2]: Active
SMILES: CCOC(=O)[C@H](CO)NC(=O)c1cccc(O)c1

inhibition [1]: Active | inhibition [2]: Active
SMILES: CCOC(=O)[C@H](CO)NC(=O)c1ccccc1O

inhibition [7]: Dose-Dependent Effect | IC50 [11]: 2.22 µM | inhibition [12]: Active | IC50 [17]: 2.8 µM | IC50 [18]: 8.89 µM
SMILES: CCOC(=O)[C@H](CO)NC(=O)c1cccc(O)c1O
Activity [3]: inactive | Activity [4]: Non-Toxic | Activity [5]: Dose-Dependent Effect | Activity [6]: Toxic | Activity [8]: Toxic | Activity [9]: Dose-Dependent Effect | Activity [10]: Toxic | Activity [13]: Non-Toxic | Activity [14]: Dose-Dependent Effect | inhibition [15]: Dose-Dependent Effect | Activity [16]: Dose-Dependent Effect | Activity [19]: Dose-Dependent Effect | Activity [20]: Dose-Dependent Effect | Activity [21]: Non-Toxic | inhibition [22]: Active

inhibition [1]: Active | inhibition [2]: Active
SMILES: CCOC(=O)[C@H](CO)NC(=O)c1ccccc1

inhibition [1]: Active | inhibition [2]: Active
SMILES: CCOC(=O)[C@H](CO)NC(=O)c1ccc(O)cc1

Reference: ChEMBL document CHEMBL5257047, “Synthesis and Anti-Inflammatory Activity of the Natural Cyclooxygenase-2 Inhibitor Axinelline A and Its Analogues” (J Nat Prod, 2023)
